Data taken from patent US11155557B2, “Pyrazolopyrimidine compounds and methods of use thereof” (Genentech, Inc., priority 2016, dated 2021).
Like-named read-outs stand apart in the source and are kept apart here.

Columns and labels:
[1] = biological target: isolated recombinant JAK2 kinase domain (Homo sapiens (Human), UniProt O60674); assay: JAK2 enzyme assay (Caliper LabChip, Ki); conditions: read-out: JAK2 Ki
Procedure: JAK Enzyme Assays were Carried Out as Follows:
The activity of the isolated recombinant JAK1 and JAK2 kinase domain was measured by monitoring phosphorylation of a peptide derived from JAK3 ([sequence] fluorescently labeled on the N-terminus with 5-carboxyfluorescein) using the Caliper LabChip R technology (Caliper Life Sciences, Hopkinton, Mass.). […] After termination of the kinase reaction, the proportion of phosphorylated product was determined as a fraction of total peptide substrate using the Caliper LabChip R 3000 according to the manufacturer's specifications.

[2] = biological target: isolated recombinant JAK1 kinase domain (Homo sapiens (Human), UniProt P23458); assay: JAK1 enzyme assay (Caliper LabChip, Ki); type: biochemical
Procedure: The activity of the isolated recombinant JAK1 and JAK2 kinase domain was measured by monitoring phosphorylation of a peptide derived from JAK3 ([…] fluorescently labeled on the N-terminus with 5-carboxyfluorescein) using the Caliper LabChip R technology (Caliper Life Sciences, Hopkinton, Mass.).

[3] = test system: JAK1-dependent STAT6 phosphorylation in BEAS-2B human bronchial epithelial cells; assay: JAK1 pathway assay: IL-13 stimulated STAT6 phosphorylation in BEAS-2B cells; type: cell-based; conditions: BEAS-2B cells, IL-13 stimulation, read-out: IL-13 p-STAT6 BEAS-2B IC50
Procedure, shortened: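 BEAS-2B bronchial epithelial cells plated one day before, run in complete growth medium. Phospho-STAT6 in lysates measured by MesoScale Discovery; EC50 reported.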

Sequence of isolated recombinant JAK1 kinase domain (P23458 875-1153): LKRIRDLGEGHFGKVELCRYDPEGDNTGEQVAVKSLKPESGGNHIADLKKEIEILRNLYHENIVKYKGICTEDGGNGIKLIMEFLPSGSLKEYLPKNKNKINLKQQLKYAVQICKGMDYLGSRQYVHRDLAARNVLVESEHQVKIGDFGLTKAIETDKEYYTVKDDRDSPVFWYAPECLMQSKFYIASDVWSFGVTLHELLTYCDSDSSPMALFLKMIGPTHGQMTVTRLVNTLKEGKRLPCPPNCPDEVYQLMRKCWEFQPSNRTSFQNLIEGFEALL
Sequence of isolated recombinant JAK2 kinase domain (O60674 849-1124): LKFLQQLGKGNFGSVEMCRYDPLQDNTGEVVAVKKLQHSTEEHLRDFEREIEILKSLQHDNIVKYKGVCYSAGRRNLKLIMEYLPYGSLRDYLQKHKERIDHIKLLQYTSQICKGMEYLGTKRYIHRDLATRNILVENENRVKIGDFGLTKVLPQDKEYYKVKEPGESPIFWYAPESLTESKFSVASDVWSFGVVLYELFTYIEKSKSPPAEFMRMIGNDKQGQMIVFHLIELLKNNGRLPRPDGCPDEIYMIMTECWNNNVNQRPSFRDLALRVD

| SMILES | Ki [1] | Ki [2] | IC50 ([3]; Homo sapiens, BEAS-2B) | IC50 [3] |
| --- | --- | --- | --- | --- |
| CN1CCC[C@H]1Cn1cc(NC(=O)c2cnn3cccnc23)c(-c2cc3cn[nH]c3cc2OC(F)F)n1 [Example 76, N-[3-[6-(difluoromethoxy)-1H-indazol-5-yl]-1-[[(2S)-1-methylpyrrolidin-2-yl]methyl]pyrazol-4-yl]pyrazolo[1,5-a]pyrimidine-3-carboxamide] | 0.53 nM | 0.48 nM | 17 nM |  |
| CN1CCC[C@@H]1Cn1cc(NC(=O)c2cnn3cccnc23)c(-c2cc3cn[nH]c3cc2OC(F)F)n1 [Example 77, N-[3-[6-(difluoromethoxy)-1H-indazol-5-yl]-1-[[(2R)-1-methylpyrrolidin-2-yl]methyl]pyrazol-4-yl]pyrazolo[1,5-a]pyrimidine-3-carboxamide] | 0.43 nM | 0.28 nM | 9 nM |  |
| O=C(Nc1cn(CCN[C@@H]2CCOC2)nc1-c1cc2c(cc1OC(F)F)NCCS2)c1cnn2cccnc12 [Example 78, N-[3-[6-(difluoromethoxy)-3,4-dihydro-2H-1,4-benzothiazin-7-yl]-1-[2-[[(3R)-tetrahydrofuran-3-yl]amino]ethyl]pyrazol-4-yl]pyrazolo[1,5-a]pyrimidine-3-carboxamide] | 0.1 nM | 0.19 nM | 13 nM |  |
| CNCCn1cc(NC(=O)c2cnn3cccnc23)c(-c2cc3c(cc2OC(F)F)NC(=O)CS3)n1 [Example 79, N-[3-[6-(difluoromethoxy)-3-oxo-4H-1,4-benzothiazin-7-yl]-1-[2-(methylamino)ethyl]pyrazol-4-yl]pyrazolo[1,5-a]pyrimidine-3-carboxamide] | 0.13 nM | 0.18 nM | 97 nM |  |
| CNCCn1cc(NC(=O)c2cnn3cccnc23)c(-c2cc3c(cc2OC(F)F)NCCS3)n1 [Example 81, N-[3-[6-(difluoromethoxy)-3,4-dihydro-2H-1,4-benzothiazin-7-yl]-1-[2-(methylamino)ethyl]pyrazol-4-yl]pyrazolo[1,5-a]pyrimidine-3-carboxamide] | 0.11 nM | 0.12 nM | 7 nM |  |
| CN(C)CCn1cc(NC(=O)c2cnn3cccnc23)c(-c2cc3c(cc2OC(F)F)NCCS3)n1 [Example 82, N-[3-[6-(difluoromethoxy)-3,4-dihydro-2H-1,4-benzothiazin-7-yl]-1-[2-(dimethylamino)ethyl]pyrazol-4-yl]pyrazolo[1,5-a]pyrimidine-3-carboxamide] | 0.16 nM | 0.23 nM | 7 nM |  |
| CN(C)CCn1cc(NC(=O)c2cnn3cccnc23)c(-c2cc3c(cc2OC(F)F)NC(=O)CS3)n1 [Example 83, N-[3-[6-(difluoromethoxy)-3-oxo-4H-1,4-benzothiazin-7-yl]-1-[2-(dimethylamino)ethyl]pyrazol-4-yl]pyrazolo[1,5-a]pyrimidine-3-carboxamide] | 0.14 nM | 0.23 nM | 14 nM |  |
| O=C(Nc1cn(C2COC2)nc1-c1cc2c(cc1OC(F)F)NCCO2)c1cnn2cccnc12 [Example 84, N-[3-[6-(difluoromethoxy)-3,4-dihydro-2H-1,4-benzoxazin-7-yl]-1-(oxetan-3-yl)pyrazol-4-yl]pyrazolo[1,5-a]pyrimidine-3-carboxamide] | 0.12 nM | 0.19 nM | 8 nM |  |
| O=C(Nc1cn(CCN2CCOCC2)nc1-c1cc2ccccc2cc1OC(F)F)c1cnn2cccnc12 [Example 85, N-[3-[3-(difluoromethoxy)-2-naphthyl]-1-(2-morpholinoethyl)pyrazol-4-yl]pyrazolo[1,5-a]pyrimidine-3-carboxamide] | 1.69 nM | 1.32 nM | 34 nM |  |
| CN1CCC(Cn2cc(NC(=O)c3cnn4cccnc34)c(-c3cc4ccccc4cc3OC(F)F)n2)CC1 [Example 86, N-[3-[3-(difluoromethoxy)-2-naphthyl]-1-[(1-methyl-4-piperidyl)methyl]pyrazol-4-yl]pyrazolo[1,5-a]pyrimidine-3-carboxamide] | 1.02 nM | 1.53 nM | 31 nM |  |
| CCn1cc(NC(=O)c2cnn3cccnc23)c(-c2cc3ccccc3cc2OC(F)F)n1 [Example 87, N-[3-[3-(difluoromethoxy)-2-naphthyl]-1-ethyl-pyrazol-4-yl]pyrazolo[1,5-a]pyrimidine-3-carboxamide] | 0.42 nM | 0.62 nM | 15 nM |  |
| Cn1cc(NC(=O)c2cnn3cccnc23)c(-c2cc3c(cc2OC(F)F)NCCS3)n1 [Example 88, N-[3-[6-(difluoromethoxy)-3,4-dihydro-2H-1,4-benzothiazin-7-yl]-1-methyl-pyrazol-4-yl]pyrazolo[1,5-a]pyrimidine-3-carboxamide] | 0.1 nM | 0.08 nM | 5 nM |  |
| Cn1cc(NC(=O)c2cnn3cccnc23)c(-c2cc3c(cc2OC(F)F)NCCO3)n1 [Example 89, N-[3-[6-(difluoromethoxy)-3,4-dihydro-2H-1,4-benzoxazin-7-yl]-1-methyl-pyrazol-4-yl]pyrazolo[1,5-a]pyrimidine-3-carboxamide] | 0.1 nM | 0.12 nM | 7 nM |  |
| Cn1cc(NC(=O)c2cnn3cccnc23)c(-c2cc3c(cc2OC(F)F)NC(=O)CS3)n1 [Example 90, N-[3-[6-(difluoromethoxy)-3-oxo-4H-1,4-benzothiazin-7-yl]-1-methyl-pyrazol-4-yl]pyrazolo[1,5-a]pyrimidine-3-carboxamide] | 0.07 nM | 0.07 nM | 5 nM |  |
| Cn1cc(NC(=O)c2cnn3cccnc23)c(-c2cc3sc(C(=O)N4CCNCC4)cc3cc2OC(F)F)n1 [Example 91, N-[3-[5-(difluoromethoxy)-2-(piperazine-1-carbonyl)benzothiophen-6-yl]-1-methyl-pyrazol-4-yl]pyrazolo[1,5-a]pyrimidine-3-carboxamide] | 1.85 nM | 4.03 nM | 308 nM |  |
| COC(=O)Cn1cc(NC(=O)c2cnn3cccnc23)c(-c2cc3sc(C(N)=O)cc3cc2OC(F)F)n1 [Example 92, methyl 2-[3-[2-carbamoyl-5-(difluoromethoxy)benzothiophen-6-yl]-4-(pyrazolo[1,5-a]pyrimidine-3-carbonylamino)pyrazol-1-yl]acetate] | 0.2 nM | 0.22 nM | 92 nM |  |
| CC1CNc2cc(OC(F)F)c(-c3n[nH]cc3NC(=O)c3cnn4cccnc34)cc2S1 (stereo not drawn) [Example 94, N-[3-[6-(difluoromethoxy)-2-methyl-3,4-dihydro-2H-1,4-benzothiazin-7-yl]-1H-pyrazol-4-yl]pyrazolo[1,5-a]pyrimidine-3-carboxamide] | 0.05 nM | 0.07 nM |  | 7 nM |
| CN(C)C(=O)Cn1cc(NC(=O)c2cnn3cccnc23)c(-c2cc3c(cc2OC(F)F)NCCS3)n1 [Example 99, N-[3-[6-(difluoromethoxy)-3,4-dihydro-2H-1,4-benzothiazin-7-yl]-1-[2-(dimethylamino)-2-oxo-ethyl]pyrazol-4-yl]pyrazolo[1,5-a]pyrimidine-3-carboxamide] | 0.12 nM | 0.12 nM | 24 nM |  |
| CN(C)C(=O)Cn1cc(NC(=O)c2cnn3cccnc23)c(-c2cc3c(cc2OC(F)F)NCCO3)n1 [Example 100, N-[3-[6-(difluoromethoxy)-3,4-dihydro-2H-1,4-benzoxazin-7-yl]-1-[2-(dimethylamino)-2-oxo-ethyl]pyrazol-4-yl]pyrazolo[1,5-a]pyrimidine-3-carboxamide] | 0.34 nM | 0.18 nM | 39 nM |  |
| CN(C)C(=O)Cn1cc(NC(=O)c2cnn3cccnc23)c(-c2cc3c(cc2OC(F)F)CCO3)n1 [Example 109, N-[3-[5-(difluoromethoxy)-2,3-dihydrobenzofuran-6-yl]-1-[2-(dimethylamino)-2-oxo-ethyl]pyrazol-4-yl]pyrazolo[1,5-a]pyrimidine-3-carboxamide] | 0.42 nM | 0.22 nM | 22 nM |  |
| CC1(C)CNc2cc(OC(F)F)c(-c3n[nH]cc3NC(=O)c3cnn4cccnc34)cc2S1 [Example 110, N-[3-[6-(difluoromethoxy)-2,2-dimethyl-3,4-dihydro-1,4-benzothiazin-7-yl]-1H-pyrazol-4-yl]pyrazolo[1,5-a]pyrimidine-3-carboxamide] | 0.05 nM | 0.08 nM | 10 nM |  |
| CC1(C)COc2cc(OC(F)F)c(-c3n[nH]cc3NC(=O)c3cnn4cccnc34)cc2C1=O [Example 115, N-[3-[7-(difluoromethoxy)-3,3-dimethyl-4-oxo-chroman-6-yl]-1H-pyrazol-4-yl]pyrazolo[1,5-a]pyrimidine-3-carboxamide] | 0.36 nM | 0.91 nM | 55 nM |  |
| CNC(=O)Cn1cc(NC(=O)c2cnn3cccnc23)c(-c2cc3c(cc2OC(F)F)NCCO3)n1 [Example 116, N-[3-[6-(difluoromethoxy)-3,4-dihydro-2H-1,4-benzoxazin-7-yl]-1-[2-(methylamino)-2-oxo-ethyl]pyrazol-4-yl]pyrazolo[1,5-a]pyrimidine-3-carboxamide] | 0.4 nM | 0.25 nM | 42 nM |  |
| CNC(=O)Cn1cc(NC(=O)c2cnn3cccnc23)c(-c2cc3c(cc2OC(F)F)NCCS3)n1 [Example 117, N-[3-[6-(difluoromethoxy)-3,4-dihydro-2H-1,4-benzothiazin-7-yl]-1-[2-(methylamino)-2-oxo-ethyl]pyrazol-4-yl]pyrazolo[1,5-a]pyrimidine-3-carboxamide] | 0.1 nM | 0.1 nM | 24 nM |  |
